What all share (type): cell-based
The target of test [1] is T1, Aurora kinase A (Homo sapiens) (UniProt O14965).
T1 sequence (whole entry): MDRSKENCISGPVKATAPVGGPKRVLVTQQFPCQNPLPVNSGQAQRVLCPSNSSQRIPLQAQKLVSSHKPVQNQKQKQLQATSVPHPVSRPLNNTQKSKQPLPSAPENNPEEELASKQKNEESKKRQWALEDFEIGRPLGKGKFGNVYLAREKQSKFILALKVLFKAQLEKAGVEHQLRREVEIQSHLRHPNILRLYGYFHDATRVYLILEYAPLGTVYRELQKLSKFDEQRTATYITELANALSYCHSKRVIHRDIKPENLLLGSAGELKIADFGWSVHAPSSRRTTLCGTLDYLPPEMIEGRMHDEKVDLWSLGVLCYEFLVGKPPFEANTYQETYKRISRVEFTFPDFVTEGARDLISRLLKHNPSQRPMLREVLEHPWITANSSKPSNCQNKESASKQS
As to the kind of experiment: Inhibition of AURKA in human RPE-MYC H2B-GFP cells assessed as inhibition of autophosphorylation of AURKA at Thr288 residue by measuring residual enzyme activity at 10 uM measured after 6 hrs by immunofluorescence staining analysis (reference value: 100 +/-1%).

For test [2], the target named is T1, Aurora kinase A (Homo sapiens). As to the kind of experiment: Inhibition of AURKA in human RPE-MYC H2B-GFP cells assessed as inhibition of autophosphorylation of AURKA at Thr288 residue by measuring residual enzyme activity at 20 uM measured after 6 hrs by immunofluorescence staining analysis (reference value: 100 +/-1%).
Test [3] has the same target. As to the kind of experiment: Inhibition of AURKA in human RPE-MYC H2B-GFP cells assessed as inhibition of autophosphorylation of AURKA at Thr288 residue by measuring residual enzyme activity at 40 uM measured after 6 hrs by immunofluorescence staining analysis (reference value: 100+/-1%).
In test [4] the target is Aurora kinase B (Homo sapiens) (UniProt Q96GD4). As to the kind of experiment: Inhibition of AURKB in human RPE-MYC H2B-GFP cells assessed as inhibition of histone H3 phosphorylation at Ser10 residue by measuring residual enzyme activity at 10 uM measured after 6 hrs by immunofluorescence staining analysis (reference value: 100 +/-9%).
Sequence of Aurora kinase B (Homo sapiens) (Q96GD4 whole entry): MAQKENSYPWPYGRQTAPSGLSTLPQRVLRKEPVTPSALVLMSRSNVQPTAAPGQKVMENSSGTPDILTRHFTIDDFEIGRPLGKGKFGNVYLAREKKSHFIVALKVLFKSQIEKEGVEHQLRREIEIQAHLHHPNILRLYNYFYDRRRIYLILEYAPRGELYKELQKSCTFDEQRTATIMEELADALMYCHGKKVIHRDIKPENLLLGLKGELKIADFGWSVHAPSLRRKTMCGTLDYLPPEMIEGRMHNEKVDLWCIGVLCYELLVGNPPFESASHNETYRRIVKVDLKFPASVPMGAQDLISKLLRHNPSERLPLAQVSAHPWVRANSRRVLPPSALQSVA
Test [5] has the same target. As to the kind of experiment: Inhibition of AURKB in human RPE-MYC H2B-GFP cells assessed as inhibition of histone H3 phosphorylation at Ser10 residue by measuring residual enzyme activity at 20 uM measured after 6 hrs by immunofluorescence staining analysis (reference value: 100 +/-9%).
For test [6] the target is unchanged. As to the kind of experiment: Inhibition of AURKB in human RPE-MYC H2B-GFP cells assessed as inhibition of histone H3 phosphorylation at Ser10 residue by measuring residual enzyme activity at 40 uM measured after 6 hrs by immunofluorescence staining analysis (reference value: 100 +/-9%).
Test [7] shares this target. As to the kind of experiment: Disruption of mitotic localization of AURKB in human RPE-MYC H2B-GFP cells assessed as proportion of polyploid cells in fully attached cell population at 10 uM measured after 72 hrs by fluorescence high content cell imaging analysis (Rvb <1%).
Test [8] has the same target. As to the kind of experiment: Disruption of mitotic localization of AURKB in human RPE-MYC H2B-GFP cells assessed as proportion of polyploid cells in fully attached cell population at 20 uM measured after 72 hrs by fluorescence high content cell imaging analysis (Rvb <1%).
Test [9] has the same target. As to the kind of experiment: Disruption of mitotic localization of AURKB in human RPE-MYC H2B-GFP cells assessed as proportion of polyploid cells in fully attached cell population at 40 uM measured after 72 hrs by fluorescence high content cell imaging analysis (Rvb <1%).
Test [10] shares this target. As to the kind of experiment: Disruption of mitotic localization of AURKB in human RPE-MYC H2B-GFP cells assessed as mitotic index at 10 uM measured after 6 hrs by fluorescence high content cell imaging analysis (reference value: 4.7+/-0.4%).
Test [11] shares this target. As to the kind of experiment: Disruption of mitotic localization of AURKB in human RPE-MYC H2B-GFP cells assessed as mitotic index at 20 uM measured after 6 hrs by fluorescence high content cell imaging analysis (reference value: 4.7+/-0.4%).
For test [12] the target is unchanged. As to the kind of experiment: Disruption of mitotic localization of AURKB in human RPE-MYC H2B-GFP cells assessed as mitotic index at 40 uM measured after 6 hrs by fluorescence high content cell imaging analysis (reference value: 4.7+/-0.4%).
Test [13] shares this target. As to the kind of experiment: Disruption of mitotic localization of AURKB in human RPE-MYC H2B-GFP cells assessed as induction of mitotic arrest measured after 24 hrs by fluorescence high content cell imaging analysis.
For test [14] the target is unchanged. As to the kind of experiment: Disruption of mitotic localization of AURKB in human RPE-MYC H2B-GFP cells assessed as induction of polyploidy by fluorescence high content cell imaging analysis.
Test [15] concerns the target T1, Aurora kinase A (Homo sapiens). As to the kind of experiment: Inhibition of AURKA in human RPE-MYC H2B-GFP cells assessed as inhibition of autophosphorylation of AURKA at Thr288 residue by measuring residual enzyme activity at 0.078 uM measured after 6 hrs by immunofluorescence staining analysis (reference value: 100 +/-1%).
For test [16] the target is unchanged. As to the kind of experiment: Inhibition of AURKA in human RPE-MYC H2B-GFP cells assessed as inhibition of autophosphorylation of AURKA at Thr288 residue by measuring residual enzyme activity at 0.156 uM measured after 6 hrs by immunofluorescence staining analysis (reference value: 100 +/-1%).
The target is the same in test [17]. As to the kind of experiment: Inhibition of AURKA in human RPE-MYC H2B-GFP cells assessed as inhibition of autophosphorylation of AURKA at Thr288 residue by measuring residual enzyme activity at 0.312 uM measured after 6 hrs by immunofluorescence staining analysis (reference value: 100 +/-1%).
Test [18] addresses Aurora kinase B (Homo sapiens) (UniProt Q96GD4). As to the kind of experiment: Inhibition of AURKB in human RPE-MYC H2B-GFP cells assessed as inhibition of histone H3 phosphorylation at Ser10 residue by measuring residual enzyme activity at 0.078 uM measured after 6 hrs by immunofluorescence staining analysis (reference value: 100 +/-9%).
Test [19] shares this target. As to the kind of experiment: Inhibition of AURKB in human RPE-MYC H2B-GFP cells assessed as inhibition of histone H3 phosphorylation at Ser10 residue by measuring residual enzyme activity at 0.156 uM measured after 6 hrs by immunofluorescence staining analysis (reference value: 100 +/-9%).
For test [20] the target is unchanged. As to the kind of experiment: Inhibition of AURKB in human RPE-MYC H2B-GFP cells assessed as inhibition of histone H3 phosphorylation at Ser10 residue by measuring residual enzyme activity at 0.312 uM measured after 6 hrs by immunofluorescence staining analysis (reference value: 100 +/-9%).
Test [21] has the same target. As to the kind of experiment: Disruption of mitotic localization of AURKB in human RPE-MYC H2B-GFP cells assessed as proportion of polyploid cells in fully attached cell population at 0.078 uM measured after 48 hrs by fluorescence high content cell imaging analysis (Rvb <1%).
For test [22] the target is unchanged. As to the kind of experiment: Disruption of mitotic localization of AURKB in human RPE-MYC H2B-GFP cells assessed as proportion of polyploid cells in fully attached cell population at 0.156 uM measured after 48 hrs by fluorescence high content cell imaging analysis (Rvb <1%).
Test [23] has the same target. As to the kind of experiment: Disruption of mitotic localization of AURKB in human RPE-MYC H2B-GFP cells assessed as proportion of polyploid cells in fully attached cell population at 0.312 uM measured after 48 hrs by fluorescence high content cell imaging analysis (Rvb <1%).
For test [24] the target is unchanged. As to the kind of experiment: Disruption of mitotic localization of AURKB in human RPE-MYC H2B-GFP cells assessed as mitotic index at 0.078 uM measured after 6 hrs by fluorescence high content cell imaging analysis (reference value: 4.7+/-0.4%).
Test [25] shares this target. As to the kind of experiment: Disruption of mitotic localization of AURKB in human RPE-MYC H2B-GFP cells assessed as mitotic index at 0.156 uM measured after 6 hrs by fluorescence high content cell imaging analysis (reference value: 4.7+/-0.4%).
Test [26] has the same target. As to the kind of experiment: Disruption of mitotic localization of AURKB in human RPE-MYC H2B-GFP cells assessed as mitotic index at 0.312 uM measured after 6 hrs by fluorescence high content cell imaging analysis (reference value: 4.7+/-0.4%).

As for `Nc1ccc(Oc2ccnc3ccccc23)cc1`, the Activity in [1] is 106%; in test [2] it was 109%; in test [3], 115%; in test [4] it was 104%; in [5], 102%; in test [6], 105%. In addition, the Activity was 100% in test [7]; 100% in test [8]; 100% in [9]; 15.6% in test [10]; 16.2% in test [11]; 15.6% in test [12]. Further, the MEC in test [13] and in test [14] was 10 µM throughout.
Consider `Cc1csc(-c2nnc(Nc3ccc(Oc4ccnc5ccccc45)cc3)c3ccccc23)c1`, for which the Activity turned out to be 100% in [15]; 100% in [16]; 100% in [17]; 98% in [18]; 21.4% in [19]; 0% in test [20]. Moreover, the Activity in [21] amounted to 100%; in test [22], 100%; in [23], 100%; in [24] it was 11%; in [25], 9.8%; in [26], 10.1%.
